In patent US10118935B2, “Melampomagnolide B dimers” (priority 2014, dated 2018):

Key:
U251 = test: NCI 60 cell line five dose, CNS Cancer
MCF7 = test: NCI 60 cell line five dose, Breast Cancer
SK-OV-3 = test: NCI 60 cell line five dose, Ovarian Cancer
MALME-3M = test: NCI 60 cell line five dose, Melanoma; conditions: MAL1ME−3M
OVCAR-3 = test: NCI 60 cell line five dose, Ovarian Cancer
UO-31 = test: NCI 60 cell line five dose, Renal Cancer
ACHN = test: NCI 60 cell line five dose, Renal Cancer
NCI/ADR-RES = test: NCI 60 cell line five dose, Ovarian Cancer; conditions: NCI/ADR-
M9ENL AML cell lines = conditions: read-out: LC50; M9ENL AML cell lines; after 24 hours of drug exposure
CCRF-CEM = test: NCI 60 cell line five dose, Leukemia
OVCAR-5 = test: NCI 60 cell line five dose, Ovarian Cancer
MDA-MB-468 = test: NCI 60 cell line five dose, Breast Cancer
SR = test: NCI 60 cell line five dose, Leukemia
HOP-92 = test: NCI 60 cell line five dose, Non-Small Cell Lung Cancer
SF-295 = test: NCI 60 cell line five dose, CNS Cancer
A549/ATCC = test: NCI 60 cell line five dose, Non-Small Cell Lung Cancer
NCI-H460 = test: as above
786-0 = test: NCI 60 cell line five dose, Renal Cancer
M14 = test: NCI 60 cell line five dose, Melanoma
HCT-15 = test: NCI 60 cell line five dose, Colon Cancer
PC-3 = test: NCI 60 cell line five dose, Prostate Cancer
KM12 = test: NCI 60 cell line five dose, Colon Cancer

SMILES: C=C1C(=O)O[C@H]2[C@H]1CC/C(COC(=O)NCCCCCCCCNC(=O)OC/C1=C/CC[C@@]3(C)O[C@H]3[C@H]3OC(=O)C(=C)[C@@H]3CC1)=C\CC[C@@]1(C)O[C@@H]21 [JVM 3-62, bis(((1aR,7aS, 10aS, 10bS, E)-1a-Methyl-8-methylene-9-oxo-1a,2,3,6,7,7a,8,9,10a,10b-decahydrooxireno[2′,3′:9,10]cyclodeca[1,2-b]furan-5-yl)methyl)octane-1,8-diyldicarbamate]
- Percent Growth (U251; Log10 Concentration −4.0): −77%
- Percent Growth (U251; Log10 Concentration −5.0): −79%
- Percent Growth (U251; Log10 Concentration −6.0): −18%
- Percent Growth (U251; Log10 Concentration −7.0): 91%
- Percent Growth (U251; Log10 Concentration −8.0): 96%
- GI50 (U251; molar): 578 nM
- TGI (U251; molar): 2.00E−6
- CC50 (U251; read-out: LC50, molar): 5130 nM
- Percent Growth (MCF7; Log10 Concentration −4.0): −54%
- Percent Growth (MCF7; Log10 Concentration −5.0): −75%
- Percent Growth (MCF7; Log10 Concentration −6.0): −7%
- Percent Growth (MCF7; Log10 Concentration −7.0): 80%
- Percent Growth (MCF7; Log10 Concentration −8.0): 89%
- GI50 (MCF7; molar): 221 nM
- TGI (MCF7; molar): 8.33E−7
- CC50 (MCF7; read-out: LC50, molar): 4300 nM
- Percent Growth (SK-OV-3; Log10 Concentration −4.0): −100%
- Percent Growth (SK-OV-3; Log10 Concentration −5.0): 10%
- Percent Growth (SK-OV-3; Log10 Concentration −6.0): 101%
- Percent Growth (SK-OV-3; Log10 Concentration −7.0): 108%
- Percent Growth (SK-OV-3; Log10 Concentration −8.0): 108%
- GI50 (SK-OV-3; molar): 3640 nM
- Percent Growth (MALME-3M; Log10 Concentration −4.0): −65%
- Percent Growth (MALME-3M; Log10 Concentration −5.0): −58%
- Percent Growth (MALME-3M; Log10 Concentration −6.0): −55%
- Percent Growth (MALME-3M; Log10 Concentration −7.0): 95%
- Percent Growth (MALME-3M; Log10 Concentration −8.0): 95%
- GI50 (MALME-3M; molar): 199 nM
- CC50 (MALME-3M; read-out: LC50, molar): 929 nM
- Percent Growth (OVCAR-3; Log10 Concentration −4.0): −100%
- Percent Growth (OVCAR-3; Log10 Concentration −5.0): −98%
- Percent Growth (OVCAR-3; Log10 Concentration −6.0): 3%
- Percent Growth (OVCAR-3; Log10 Concentration −7.0): 101%
- Percent Growth (OVCAR-3; Log10 Concentration −8.0): 102%
- GI50 (OVCAR-3; molar): 330 nM
- TGI (OVCAR-3; molar): 1.08E−6
- CC50 (OVCAR-3; read-out: LC50, molar): 3320 nM
- Percent Growth (UO-31; Log10 Concentration −4.0): −87%
- Percent Growth (UO-31; Log10 Concentration −5.0): −94%
- Percent Growth (UO-31; Log10 Concentration −6.0): 48%
- Percent Growth (UO-31; Log10 Concentration −7.0): 90%
- Percent Growth (UO-31; Log10 Concentration −8.0): 90%
- GI50 (UO-31; molar): 880 nM
- TGI (UO-31; molar): 2.17E−6
- CC50 (UO-31; read-out: LC50, molar): 4900 nM
- Percent Growth (ACHN; Log10 Concentration −4.0): −78%
- Percent Growth (ACHN; Log10 Concentration −5.0): −84%
- Percent Growth (ACHN; Log10 Concentration −6.0): −31%
- Percent Growth (ACHN; Log10 Concentration −7.0): 100%
- Percent Growth (ACHN; Log10 Concentration −8.0): 98%
- GI50 (ACHN; molar): 268 nM
- TGI (ACHN; molar): 6.62E−7
- CC50 (ACHN; read-out: LC50, molar): 2850 nM
- Percent Growth (NCI/ADR-RES; Log10 Concentration −4.0): −57%
- Percent Growth (NCI/ADR-RES; Log10 Concentration −5.0): 21%
- Percent Growth (NCI/ADR-RES; Log10 Concentration −6.0): 92%
- Percent Growth (NCI/ADR-RES; Log10 Concentration −7.0): 111%
- Percent Growth (NCI/ADR-RES; Log10 Concentration −8.0): 103%
- GI50 (NCI/ADR-RES; molar): 3910 nM
- TGI (NCI/ADR-RES; molar): 1.87E−5
- CC50 (NCI/ADR-RES; read-out: LC50, molar): 82000 nM
- CC50 (M9ENL AML cell lines): 1000 nM
- Percent Growth (CCRF-CEM; Log10 Concentration −4.0): −44%
- Percent Growth (CCRF-CEM; Log10 Concentration −5.0): −45%
- Percent Growth (CCRF-CEM; Log10 Concentration −6.0): −8%
- Percent Growth (CCRF-CEM; Log10 Concentration −7.0): 89%
- Percent Growth (CCRF-CEM; Log10 Concentration −8.0): 99%
- GI50 (CCRF-CEM; molar): 255 nM
- CC50 (CCRF-CEM; read-out: LC50, molar): > 100000 nM
- Percent Growth (OVCAR-5; Log10 Concentration −4.0): −77%
- Percent Growth (OVCAR-5; Log10 Concentration −5.0): −80%
- Percent Growth (OVCAR-5; Log10 Concentration −6.0): −4%
- Percent Growth (OVCAR-5; Log10 Concentration −7.0): 91%
- Percent Growth (OVCAR-5; Log10 Concentration −8.0): 92%
- GI50 (OVCAR-5; molar): 269 nM
- TGI (OVCAR-5; molar): 9.12E−7
- CC50 (OVCAR-5; read-out: LC50, molar): 4040 nM
- Percent Growth (MDA-MB-468; Log10 Concentration −4.0): −70%
- Percent Growth (MDA-MB-468; Log10 Concentration −5.0): −81%
- Percent Growth (MDA-MB-468; Log10 Concentration −6.0): −43%
- Percent Growth (MDA-MB-468; Log10 Concentration −7.0): 86%
- Percent Growth (MDA-MB-468; Log10 Concentration −8.0): 100%
- GI50 (MDA-MB-468; molar): 190 nM
- TGI (MDA-MB-468; molar): 4.62E−7
- CC50 (MDA-MB-468; read-out: LC50, molar): 1500 nM
- Percent Growth (SR; Log10 Concentration −4.0): −31%
- Percent Growth (SR; Log10 Concentration −5.0): −26%
- Percent Growth (SR; Log10 Concentration −6.0): 6%
- Percent Growth (SR; Log10 Concentration −7.0): 95%
- Percent Growth (SR; Log10 Concentration −8.0): 98%
- GI50 (SR; molar): 317 nM
- CC50 (SR; read-out: LC50, molar): > 100000 nM
- Percent Growth (HOP-92; Log10 Concentration −4.0): −88%
- Percent Growth (HOP-92; Log10 Concentration −5.0): −92%
- Percent Growth (HOP-92; Log10 Concentration −6.0): −26%
- Percent Growth (HOP-92; Log10 Concentration −7.0): 75%
- Percent Growth (HOP-92; Log10 Concentration −8.0): 87%
- GI50 (HOP-92; molar): 177 nM
- TGI (HOP-92; molar): 5.51E−7
- CC50 (HOP-92; read-out: LC50, molar): 2290 nM
- Percent Growth (SF-295; Log10 Concentration −4.0): −87%
- Percent Growth (SF-295; Log10 Concentration −5.0): −40%
- Percent Growth (SF-295; Log10 Concentration −6.0): 87%
- Percent Growth (SF-295; Log10 Concentration −7.0): 92%
- Percent Growth (SF-295; Log10 Concentration −8.0): 85%
- GI50 (SF-295; molar): 1950 nM
- TGI (SF-295; molar): 4.82E−6
- CC50 (SF-295; read-out: LC50, molar): 16200 nM
- Percent Growth (A549/ATCC; Log10 Concentration −4.0): −84%
- Percent Growth (A549/ATCC; Log10 Concentration −5.0): −72%
- Percent Growth (A549/ATCC; Log10 Concentration −6.0): 87%
- Percent Growth (A549/ATCC; Log10 Concentration −7.0): 96%
- Percent Growth (A549/ATCC; Log10 Concentration −8.0): 96%
- GI50 (A549/ATCC; molar): 1700 nM
- TGI (A549/ATCC; molar): 3.51E−6
- CC50 (A549/ATCC; read-out: LC50, molar): 7260 nM
- Percent Growth (NCI-H460; Log10 Concentration −4.0): −64%
- Percent Growth (NCI-H460; Log10 Concentration −5.0): −56%
- Percent Growth (NCI-H460; Log10 Concentration −6.0): 84%
- Percent Growth (NCI-H460; Log10 Concentration −7.0): 102%
- Percent Growth (NCI-H460; Log10 Concentration −8.0): 104%
- GI50 (NCI-H460; molar): 1750 nM
- TGI (NCI-H460; molar): 3.98E−6
- CC50 (NCI-H460; read-out: LC50, molar): 9020 nM
- Percent Growth (786-0; Log10 Concentration −4.0): −81%
- Percent Growth (786-0; Log10 Concentration −5.0): −81%
- Percent Growth (786-0; Log10 Concentration −6.0): −32%
- Percent Growth (786-0; Log10 Concentration −7.0): 95%
- Percent Growth (786-0; Log10 Concentration −8.0): 95%
- GI50 (786-0; molar): 244 nM
- CC50 (786-0; read-out: LC50, molar): 2930 nM
- Percent Growth (M14; Log10 Concentration −4.0): −76%
- Percent Growth (M14; Log10 Concentration −5.0): −71%
- Percent Growth (M14; Log10 Concentration −6.0): −10%
- Percent Growth (M14; Log10 Concentration −7.0): 95%
- Percent Growth (M14; Log10 Concentration −8.0): 95%
- GI50 (M14; molar): 272 nM
- TGI (M14; molar): 8.00E−7
- CC50 (M14; read-out: LC50, molar): 4530 nM
- Percent Growth (HCT-15; Log10 Concentration −4.0): 83%
- Percent Growth (HCT-15; Log10 Concentration −5.0): −90%
- Percent Growth (HCT-15; Log10 Concentration −6.0): 16%
- Percent Growth (HCT-15; Log10 Concentration −7.0): 90%
- Percent Growth (HCT-15; Log10 Concentration −8.0): 91%
- GI50 (HCT-15; molar): 346 nM
- TGI (HCT-15; molar): 1.41E−6
- CC50 (HCT-15; read-out: LC50, molar): 4160 nM
- Percent Growth (PC-3; Log10 Concentration −4.0): −91%
- Percent Growth (PC-3; Log10 Concentration −5.0): −78%
- Percent Growth (PC-3; Log10 Concentration −6.0): 21%
- Percent Growth (PC-3; Log10 Concentration −7.0): 91%
- Percent Growth (PC-3; Log10 Concentration −8.0): 91%
- GI50 (PC-3; molar): 385 nM
- TGI (PC-3; molar): 1.63E−6
- CC50 (PC-3; read-out: LC50, molar): 5200 nM
- Percent Growth (KM12; Log10 Concentration −4.0): −83%
- Percent Growth (KM12; Log10 Concentration −5.0): −66%
- Percent Growth (KM12; Log10 Concentration −6.0): 65%
- Percent Growth (KM12; Log10 Concentration −7.0): 105%
- Percent Growth (KM12; Log10 Concentration −8.0): 102%
- GI50 (KM12; molar): 1290 nM
- CC50 (KM12; read-out: LC50, molar): 7490 nM
